Converted amounts (≈) assume the structure as drawn. Like-named read-outs stand apart in the source and are kept apart here.
System: #Probio-16
Test: Antibiotic susceptibility of #Probio-16 (paper disc)
Assay type: cell-based, Lactobacillus reuteri
Procedure: Antibiotic susceptibility of #Probio-16 was assayed according to Microbiology procedures handbook vol. 1 (Henry D. Isenberg, ASM) and Korean Pat. Publication No. 91-4366. In this regard, 13 antibiotics, that is, cephalexcin, erythromycin, flumequinine, furazolidine, gentamycin, procaine, penicillin G, norflaxacine, spectinomycin, tetracycline, tiamuline, neomycin, chloramphenicol, and kanamycin, were dissolved in appropriate solvents. By concentrations, the prepared antibiotic solutions were inoculated in an amount of 30 μl onto a paper disc which was then allowed to stand for 1 hour at 4° C. Inhibitory circles emerging after 24 hours of anaerobic incubation were measured.
Assay of #Probio-16 for antibiotic susceptibility was conduced according to Microbiology Procedures Handbook vol. 1 (Henry D. Isenberg, ASM) and Korean Pat. Publication No. 91-4366, with regard to 13 antibiotics, including cephalexcin, erythromycin, flumequinine, furazolidine, gentamycin, procaine, penicillin G, norflaxacine, spectinomycin, tetracycline, tiamuline, neomycin, chloramphenicol, and kanamycin. By concentrations, antibiotic solutions were inoculated in an amount of 30 μl onto a paper disc which was then allowed to stand for 1 hour at 4° C. Inhibitory circles emerging after 24 hours of anaerobic incubation were measured.

[1] = Limosilactobacillus reuteri, against #Probio-16, 24 hours anaerobic incubation (Table 3), read-out: MIC
[2] = Limosilactobacillus reuteri, against Lactobacillus reuteri Probio-16, read-out: minimal inhibitory concentration (MIC)
[3] = against #Probio-16, 24 hours anaerobic incubation (Table 3)
[4] = against Lactobacillus reuteri Probio-16 (unit not given)
[5] = against Lactobacillus reuteri Probio-16

Molecule	MIC [1] [µg/mL]	MIC [2] [µg/mL]	MIC [3] [µg/mL]	minimal inhibitory concentration (MIC) [4]	minimal inhibitory concentration (MIC) [5]
C=C[C@]1(C)C[C@@H](OC(=O)CSCCN(CC)CC)[C@]2(C)[C@H](C)CC[C@]3(CCC(=O)[C@H]32)[C@@H](C)[C@@H]1O [Tiamuline]	300 (≈ 608 µM)	300 (≈ 608 µM)			
NC[C@H]1O[C@H](O[C@H]2[C@H](O)[C@@H](O[C@H]3O[C@H](CO)[C@@H](O)[C@H](N)[C@H]3O)[C@H](N)C[C@@H]2N)[C@H](O)[C@@H](O)[C@@H]1O [Kanamycine]	4000 (≈ 8260 µM)	4000 (≈ 8260 µM)			
CCn1cc(C(=O)O)c(=O)c2cc(F)c(N3CCNCC3)cc21 [Norflaxacine]			1000 (≈ 3130 µM)	100	
CN[C@@H]1[C@H](O)[C@H](NC)[C@H]2O[C@@]3(O)C(=O)C[C@@H](C)O[C@H]3O[C@@H]2[C@H]1O [Spectinomycine]	2500 (≈ 7520 µM)	2500 (≈ 7520 µM)			
CC[C@H]1OC(=O)[C@H](C)[C@@H](O[C@H]2C[C@@](C)(OC)[C@@H](O)[C@H](C)O2)[C@H](C)[C@@H](O[C@@H]2O[C@H](C)C[C@H](N(C)C)[C@H]2O)[C@](C)(O)C[C@@H](C)C(=O)[C@H](C)[C@@H](O)[C@]1(C)O [Erythromycin]	4 (≈ 5.45 µM)	4 (≈ 5.45 µM)			
O=C(N[C@H](CO)[C@H](O)c1ccc([N+](=O)[O-])cc1)C(Cl)Cl [Chloramphenicol]	200 (≈ 619 µM)	200 (≈ 619 µM)			
CC1(C)S[C@@H]2[C@H](NC(=O)Cc3ccccc3)C(=O)N2[C@H]1C(=O)O.CCN(CC)CCOC(=O)c1ccc(N)cc1 [procaine Penicilline G]			4	4	
CC1=C(C(=O)O)N2C(=O)[C@@H](NC(=O)[C@H](N)c3ccccc3)[C@H]2SC1 [Cephalexcin]			90 (≈ 259 µM)		90 µg/mL (≈ 259 µM)
CC1CCc2cc(F)cc3c(=O)c(C(=O)O)cn1c23 (centres unmarked) [Flumequinine]			4000 (≈ 15300 µM)		4,000 μg/ml
CN(C)[C@@H]1C(O)=C(C(N)=O)C(=O)[C@@]2(O)C(O)=C3C(=O)c4c(O)cccc4[C@@](C)(O)[C@H]3C[C@@H]12 [Tetracycline]	1500 (≈ 3380 µM)	1500 (≈ 3380 µM)			
Gentamycine			100		100 µg/mL
NC[C@@H]1O[C@H](O[C@H]2[C@@H](O)[C@H](O[C@@H]3[C@@H](O)[C@H](N)C[C@H](N)[C@H]3O[C@H]3O[C@H](CN)[C@@H](O)[C@H](O)[C@H]3N)O[C@@H]2CO)[C@H](N)[C@@H](O)[C@@H]1O [Neomycine]			100 (≈ 163 µM)		100 µg/mL (≈ 163 µM)
O=C1OCCN1/N=C/c1ccc([N+](=O)[O-])o1 [Furazolidine]			90 (≈ 400 µM)		90 µg/mL (≈ 400 µM)

— patent US7192581B2, “Lactobacillus reuteri useful as probiotics” (Probionic Corp., priority 2001, dated 2007)
